Patent US10294228B2, “Breathing control modulating compounds, and methods of making and using same” (NEURAD LTD., priority 2015, dated 2019)
Counter-ions that a name gives are not always drawn.

System: anesthetized rats
Assay: Anesthetized rat spirometry screening assay (ventilatory activity, minute volume)
Assay type: in vivo
Settings: increase in minute volume (VE); for change in vivo at 0.3 mg/kg: 0.3 mg/kg IV bolus, read-out: VE % Inc @ 0.3 mg/kg IV; for change in vivo at 3 mg/kg: 3.0 mg/kg IV bolus, read-out: VE % Inc @ 3.0 mg/kg IV
Method in brief: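 Urethane-anesthetized (1.5 g/kg i.v.) rats with tracheal cannula to pneumotachometer; minute volume derived from respiratory rate × tidal volume. Compounds given as i.v. bolus at 0.1 and/or 0.3 and/or 3 mg/kg, monitored at least 6 min; data as 30 s averages.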

SMILES | change in vivo at 0.3 mg/kg | change in vivo at 3 mg/kg
C=CCNc1nc(NC)c2nc(N(CCC)C[C@H](C)O)nc(NC)c2n1 [Compound 155, (S)-1-[(6-Allylamino-4,8-bis-methylamino-pyrimido[5,4-d]-pyrimidin-2-yl)-propyl-amino]-propan-2-ol] | 14% | 79%
C#CCNc1nc(NC)nc2c(NCCO)nc(NC)nc12 [Compound 58a, 2-(2,6-Bis-methylamino-8-prop-2-ynylamino-pyrimido[5,4-d]pyrimidin-4-ylamino)-ethanol Hydrochloride] | 10% | –
CCCNc1nc(NCC(F)(F)F)nc2c(NCCO)nc(NCC(F)(F)F)nc12 [Compound 28a, 2-[8-propylamino-2,6-bis-(2,2,2-trifluoroethylamino)-pyrimido[5,4-d]pyrimidin-4-ylamino]ethanol hydrochloride] | 16% | –
CNc1nc(N(C)C)nc2c(NC)nc(NCCO)nc12 [Compound 92, 2-(6-Dimethylamino-4,8-bis-methylamino-pyrimido[5,4-d]-pyrimidin-2-ylamino)-ethanol] | 49% | 148%
CNc1nc(NCC2CC2)nc2c(NC)nc(NCCO)nc12 [Compound 90, 2-[6-(Cyclopropylmethyl-amino)-4,8-bis-methylamino-pyrimido[5,4-d]pyrimidin-2-ylamino]-ethanol] | 26% | –
CCCNc1nc(NC)c2nc(NC[C@@H](C)O)nc(NC)c2n1 [Compound 115, (R)-1-(4,8-Bis-methylamino-6-propylamino-pyrimido[5,4-d]pyrimidin-2-ylamino)-propan-2-ol] | 60% | 151%
C=CCNc1nc(NC)c2nc(NC[C@H](C)O)nc(NC)c2n1 [Compound 143, (S)-1-(6-Allylamino-4,8-bis-methylamino-pyrimido[5,4-d]pyrimidin-2-ylamino)-propan-2-ol] | 81% | 150%
CC[C@H](C)Nc1nc(NC)c2nc(NC[C@H](C)O)nc(NC)c2n1 [Compound 105, (S)-1-[6-((S)-sec-Butylamino)-4,8-bis-methylamino-pyrimido[5,4-d]pyrimidin-2-ylamino]-propan-2-ol] | 14% | 120%
CCCNc1nc(NCC(F)(F)F)nc2c(NCC(C)(C)O)nc(NCC(F)(F)F)nc12 [Compound 34a, 2-Methyl-1-[8-propylamino-2,6-bis-(2,2,2-trifluoro-ethylamino)-pyrimido[5,4-d]pyrimidin-4-ylamino]-propan-2-ol Hydrochloride] | 2% | –
CNc1nc(NCC(F)F)c2nc(NC)nc(NCCO)c2n1 [Compound 60a, 2-[8-(2,2-Difluoro-ethylamino)-2,6-bis-methylamino-pyrimido[5,4-d]-pyrimidin-4-ylamino]-ethanol Hydrochloride] | 15% | 119%
CCCNc1nc(NC)nc2c(N(C)CC(C)(C)O)nc(NC)nc12 [Compound 76, 1-[(2,6-Bis-methylamino-8-propylamino-pyrimido[5,4-d]pyrimidin-4-yl)-methyl-amino]-2-methyl-propan-2-ol] | 37% | 71%
CC[C@@H](C)Nc1nc(NC)nc2c(NCC(C)(C)O)nc(NC)nc12 [Compound 40a, 1-[8-((R)-sec-Butylamino)-2,6-bis-methylamino-pyrimido[5,4-d]-pyrimidin-4-ylamino]-2-methyl-propan-2-ol Hydrochloride] | 79% | 158%
C=C(C)CNc1nc(NC)c2nc(NC[C@H](C)O)nc(NC)c2n1 [Compound 159, (S)-1-[6-(2-Methyl-allylamino)-4,8-bis-methylamino-pyrimido[5,4-d]-pyrimidin-2-ylamino]-propan-2-ol] | 61% | 160%
CCCNc1nc(NC)nc2c(NCC(O)(CC)CC)nc(NC)nc12 [Compound 74a, 3-[(2,6-Bis-methylamino-8-propylamino-pyrimido[5,4-d]pyrimidin-4-ylamino)-methyl]-pentan-3-ol Hydrochloride] | 153% | 208%
CCCNc1nc(NC)c2nc(NCCO)nc(NC)c2n1 [Compound 91, 2-(4,8-Bis-methylamino-6-propylamino-pyrimido[5,4-d]pyrimidin-2-ylamino)-ethanol] | 16% | –
CNc1nc(NCc2ccccc2)c2nc(NC)nc(NCCO)c2n1 [Compound 64a, 2-(8-Benzylamino-2,6-bis-methylamino-pyrimido[5,4-d]-pyrimidin-4-ylamino)-ethanol Hydrochloride] | 32% | 157%
CCCNc1nc(NC)nc2c(N[C@@H]3CCC[C@H]3O)nc(NC)nc12 [Compound 87, (1R,2R)-2-(2,6-Bis-methylamino-8-propylamino-pyrimido[5,4-d]pyrimidin-4-ylamino)-cyclopentanol] | 39% | 129%

SMILES | change in vivo at 0.3 mg/kg | change in vivo at 3 mg/kg
C=C(C)CNc1nc(NCC)c2nc(NC[C@@H](C)O)nc(NCC)c2n1 [Compound 174, (R)-1-[4,8-Bis-ethylamino-6-(2-methyl-allylamino)-pyrimido[5,4-d]-pyrimidin-2-ylamino]-propan-2-ol] | 72% | 114%
CNc1nc(NC)c2nc(NCC(C)(C)O)nc(NC)c2n1 [Compound 149, 2-Methyl-1-(4,6,8-tris-methylamino-pyrimido[5,4-d]pyrimidin-2-ylamino)-propan-2-ol] | 16% | 49%
CCCNc1nc(NCC)c2nc(NCCO)nc(NCC)c2n1 [Compound 162, 2-(4,8-Bis-ethylamino-6-propylamino-pyrimido[5,4-d]pyrimidin-2-ylamino)-ethanol] | 187% | 216%
CCCNc1nc(NC)nc2c(NCCCO)nc(NC)nc12 [Compound 8a, 3-(2,6-Bis-methylamino-8-propylamino-pyrimido[5,4-d]pyrimidin-4-ylamino)-propan-1-ol hydrochloride] | 31% | –
CNc1nc(NC[C@@H](C)O)nc2c(NC)nc(N)nc12 [Compound 151, (R)-1-(6-Amino-4,8-bis-methylamino-pyrimido[5,4-d]-pyrimidin-2-ylamino)-propan-2-ol] | 0% | 95%
CNc1nc(NCC2CC2)c2nc(NC)nc(NCCO)c2n1 [Compound 54a, 2-[8-(Cyclopropylmethyl-amino)-2,6-bis-methylamino-pyrimido[5,4-d]pyrimidin-4-ylamino]-ethanol Hydrochloride] | 165% | –
CNc1nc(NCC(C)(C)O)c2nc(NC)nc(NCc3ccccc3)c2n1 [Compound 44a, 1-(8-Benzylamino-2,6-bis-methylamino-pyrimido[5,4-d]pyrimidin-4-ylamino)-2-methyl-propan-2-ol Hydrochloride] | 122% | 132%
CCNc1nc(NCC(C)(C)O)c2nc(NCC)nc(NCC(F)F)c2n1 [Compound 47a, 1-[8-(2,2-difluoro-ethylamino)-2,6-bis-ethylamino-pyrimido[5,4-d]pyrimidin-4-ylamino]-2-methyl-propan-2-ol hydrochloride] | 31% | –
CNc1nc(NCCO)c2nc(NC)nc(NC)c2n1 [Compound 52a, 2-(2,6,8-Tris-methylamino-pyrimido[5,4-d]pyrimidin-4-ylamino)-ethanol Hydrochloride] | 26% | –
CCNc1nc(NCC(C)(C)O)c2nc(NCC)nc(NCC)c2n1 [Compound 49a, 2-Methyl-1-(2,6,8-tris-ethylamino-pyrimido[5,4-d]-pyrimidin-4-ylamino)-propan-2-ol Hydrochloride] | 127% | 183%
CCCNc1nc(NC)c2nc(N(C)CC(C)O)nc(NC)c2n1 (stereo not drawn) [Compound 97, 1-[(4,8-Bis-methylamino-6-propylamino-pyrimido[5,4-d]pyrimidin-2-yl)-methyl-amino]-propan-2-ol] | 49% | 140%
CCCNc1nc(NC)nc2c(NCC(O)C(F)(F)F)nc(NC)nc12 (stereo not drawn) [Compound 22a, 3-(2,6-Bis-methylamino-8-propylamino-pyrimido[5,4-d]pyrimidin-4-ylamino)-1,1,1-trifluoro-propan-2-ol Hydrochloride] | 102% | –
CCCNc1nc(NC)c2nc(NCC(O)CC)nc(NC)c2n1 (stereo not drawn) [Compound 117, 1-(4,8-Bis-methylamino-6-propylamino-pyrimido[5,4-d]pyrimidin-2-ylamino)-butan-2-ol] | 150% | 162%
CCCNc1nc(NC)c2nc(N[C@H]3CCC[C@@H]3O)nc(NC)c2n1 [Compound 139, (1S,2S)-2-(4,8-Bis-methylamino-6-propylamino-pyrimido[5,4-d]pyrimidin-2-ylamino)-cyclopentanol] | 90% | 114%
CCCNc1nc(NC)nc2c(N(C)CCO)nc(NC)nc12 [Compound 6a, 2-[(2,6-Bis-methylamino-8-propylamino-pyrimido[5,4-d]pyrimidin-4-yl)-methyl-amino]-ethanol hydrochloride] | 37% | –
CCNc1nc(NCC)c2nc(NC[C@H](C)O)nc(NCC)c2n1 [Compound 165, (S)-1-(4,6,8-Tris-ethylamino-pyrimido[5,4-d]pyrimidin-2-ylamino)-propan-2-ol] | 66% | 101%
CCCNc1nc(NC)c2nc(NC(C)C(C)O)nc(NC)c2n1 (stereo not drawn) [Compound 119, 3-(4,8-Bis-methylamino-6-propylamino-pyrimido[5,4-d]pyrimidin-2-ylamino)-butan-2-ol] | 10% | 151%
